Values after ≈ are worked out from the molar mass of the structure shown. Values joined by “and” are separate entries in the source; they are usually repeats but may differ in a detail not shown here. Equal values may be shown once. Read-outs that look alike come from different tables or passages of the source.
Key:
jejunal tissue = experiment: Viability of intestinal tissue segments by TEER; type: in vitro ADME, rat
Protocol: The effects of HP-β-CD on the viability of intestinal tissue segments mounted in the MTS-Snapwell system was evaluated during incubation time (120 min) at 37 °C. For this purpose, TEER values in the presence and absence of 20% (w/w) HP-β-CD were compared.
(§1) Integrity of intestinal tissue segments mounted in the MTS-Snapwell system was assessed by measuring the transepithelial electrical resistance (TEER) using the KRB solution at 37 °C as the conducting medium. Viable intestinal segments (>30 Ω·cm^2) were mounted on the permeation apparatus and subjected to a preincubation period (30 min) under a controlled atmosphere (95% O2 and 5% CO2) before starting the experiments.

[1] = Ex vivo rat jejunal permeability (MTS-Snapwell system, A–B); type: in vitro ADME; conditions: female, Wistar, pH 7.4, pure compound, KRB, without stirring (0 rpm)
rat jejunum [2] = experiment: as above; type: in vitro ADME
Protocol: (§2) Study protocol for female Wistar rats (12–14 weeks old) was approved by the Ethics Committee on Animal Use (#066/15) at the Federal University of Goiás, Goiás, Brazil. One week before starting the experiment, all animals were acclimatized at controlled conditions with regulated access to a standard food (22 ± 2 °C, 12-h light/dark cycle). After this, they fasted for 12 h with free access to water. All animals (body weight = 215 ± 12 g) were then anesthetized using a mixture of ketamine/xylazine (90.0/7.5 mg/kg). Rat jejunum was removed and immediately placed into an ice-cold KRB solution. The jejunum (20 mm) seromuscular layer was carefully stripped off from the membrane and mounted in the MTS-Snapwell system. Next, unidirectional drug transport was measured from the apical to basolateral side (A–B).
(§3) Sample aliquots (400 µL) were placed in the donor compartment (apical side).
(§4) Drug transport was measured by collecting samples (500 µL) from the receiver chamber (basolateral side) at 0, 20, 30, 40, 60, 90, and 120 min. Receiver samples were replaced with equal volume of fresh KRB solution (37 °C). The system was maintained on a plate shaker (60 rpm) inside a humidified incubator (37 ± 0.5 °C) in a controlled atmosphere (95% O2, and 5% CO2), before and during the transport experiment. Samples were analyzed by the HPLC-DAD validated method.
(§5) The change in donor and receiver concentrations was taken into consideration when the apparent permeability coefficient (Papp) was calculated using to the following equation:Papp = dQ/dt(1/CD A)(3) where dQ/dt is the appearance rate of the drug in the receiver compartment, CD is the concentration of the drug in the donor chamber at each sample interval, and A is the surface area (0.1 cm^2) of the tissue segment. The initial concentration of the drug in the donor compartment was determined experimentally, and donor concentrations at each time point were obtained by the calculation of the mass balance.
as §1

[3] = as above; type: in vitro ADME; conditions: female, Wistar, rat
Protocol: as §2, §3, §4, §5, §1

[4] = Preliminary in vivo studies in rats (plasma AUC); conditions: rat, n = 3
[5] = Phase solubility studies with HP-β-CD in KRB buffer; type: physicochemical; conditions: for solubility at 7 d: KRB buffer, 37 °C, thermodynamic from solid
Protocol: Phase solubility studies were performed in KRB buffer solutions (pH 7.4), as described by Higuchi and Connors. […] Samples were centrifuged (4000 rpm, 5 min) and filtered (Nylon filter; 0.45 µm) prior to the psoralens content analysis by the HPLC-DAD validated method.
The complexation efficiency (CE) was determined by using the slope of the linear phase solubility diagram as follows:CE = slope/(1 − slope)(2)

rat jejunum [6] = test system: rat jejunum; design: method as in PMID 32942105; conditions: 0.58 mM; BCS low/high permeability class boundary marker; n = 41; cited from earlier work
[7] = pH 7.4, marker in EBGT plant extract, HP-β-CD 70 mM
[8] = pH 7.4, marker in EBGT plant extract, KRB solution without HP-β-CD
[9] = pH 7.4, pure compound, HP-β-CD 70 mM
[10] = pH 7.4, pure compound, KRB solution without HP-β-CD, stirring 60 rpm, 120 min

Compound: CC(O)COC[C@H]1O[C@@H]2O[C@H]3[C@H](O)[C@@H](O)[C@@H](O[C@H]4[C@H](O)[C@@H](O)[C@@H](O[C@H]5[C@H](O)[C@@H](O)[C@@H](O[C@H]6[C@H](O)[C@@H](O)[C@@H](O[C@H]7[C@H](O)[C@@H](O)[C@@H](O[C@H]8[C@H](O)[C@@H](O)[C@@H](O[C@H]1[C@H](O)[C@H]2O)O[C@@H]8COCC(C)O)O[C@@H]7COCC(C)O)O[C@@H]6COCC(C)O)O[C@@H]5COCC(C)O)O[C@@H]4COCC(C)O)O[C@@H]3COCC(C)O (stereo partly drawn) [HP-β-CD, 2-hydroxypropyl-β-cyclodextrin]
- TEER after incubation (jejunal tissue; 20% (w/w) HP-β-CD, 120 min, 37 °C, n = 16, control KRB 32 ± 9, p = 0.99): 29 ± 7 Ω·cm^2
- effect on viability of jejunal tissue (jejunal tissue; HP-β-CD at high concentration (20% w/w)): does not affect the viability of jejunal tissue

Compound: COc1c2ccoc2cc2oc(=O)ccc12 [5-MOP, 5-methoxypsoralen]
- Papp at 120 min [1]: 7.8 ± 1.91 ×10⁻⁶ cm/s
- permeability rate decrease after adding HP-β-CD (rat jejunum [2]; EBGT markers): 4 fold
- permeability rate decrease after adding HP-β-CD (rat jejunum [2]; pure standards): 6 fold
- Papp at 120 min [3, 7]: 3.04 ± 1.19 ×10⁻⁶ cm/s
- Papp at 120 min [3, 8]: 10.7 ± 1.73 ×10⁻⁶ cm/s
- Papp at 120 min [3, 9]: 2.05 ± 0.81 ×10⁻⁶ cm/s
- Papp at 120 min [3, 10]: 11.2 ± 3.28 ×10⁻⁶ cm/s
- AUC ([4]; EBGT in HP-β-CD 70 mM solution, dose 0.12 mg/kg): 377 ng·h/mL
- AUC ([4]; EBGT uncomplexed, dose 1.5 g/kg): 516 ng·h/mL
- Kc fold lower in EBGT compared to pure compound ([5]; EBGT marker vs pure compound): ~1.8 fold
- solubility at 7 d ([5]; pH 7.4, aqueous buffer, marker in EBGT plant extract (9.0 mg/mL), KRB pH 7.4, 37 °C, absence of HP-β-CD, read-out: intrinsic solubility (S0) in EBGT): 38 ± 2 µM (≈ 8.22 µg/mL)
- solubility at 7 d ([5]; pH 7.4, aqueous buffer, pure compound, KRB buffer pH 7.4, 37 °C, absence of HP-β-CD, read-out: intrinsic solubility (S0)): 32 ± 1 µM (≈ 6.92 µg/mL)
- solubility at 7 d ([5]; pH 7.4, aqueous with cosolvent or surfactant or cyclodextrin, aqueous solubility with 70 mM HP-β-CD in plant extract, marker in EBGT, 70 mM HP-β-CD, KRB pH 7.4, 37 °C): 720 ± 40 µM (≈ 156 µg/mL)
- solubility at 7 d ([5]; pH 7.4, aqueous with cosolvent or surfactant or cyclodextrin, aqueous solubility with 70 mM HP-β-CD, pure compound, 70 mM HP-β-CD, KRB pH 7.4, 37 °C): 930 ± 7 µM (≈ 201 µg/mL)
- complexation efficiency (CE) with HP-β-CD in EBGT ([5]; marker in EBGT plant extract): 0.010 ± 0.001
- intrinsic solubility (S0) in EBGT ([5]; marker in EBGT plant extract (9.0 mg/mL), KRB pH 7.4, 37 °C, absence of HP-β-CD): 0.04 ± 0.002 mM
- Kc (stability constant) with HP-β-CD in EBGT ([5]; marker in EBGT plant extract, KRB pH 7.4, 37 °C): 251.2 ± 1.4 M⁻¹
- solubility increase ([5]; marker in EBGT, 70 mM HP-β-CD vs no HP-β-CD): 18 fold
- complexation efficiency (CE) with HP-β-CD ([5]; pure compound): 0.014 ± 0.001
- phase solubility diagram profile (Higuchi-Connors) ([5]; pure compound with HP-β-CD, indicates 1:1 complex): AL type
- intrinsic solubility (S0) ([5]; pure compound, KRB buffer pH 7.4, 37 °C, absence of HP-β-CD): 0.03 ± 0.001 mM
- Kc (stability constant) of HP-β-CD inclusion complex ([5]; pure compound, KRB pH 7.4, 37 °C, 1:1 complex): 449.9 ± 16.6 M⁻¹ and < 500 M⁻¹

Compound: COCCc1ccc(OCC(O)CNC(C)C)cc1 (centres unmarked) [metoprolol]
- Papp (rat jejunum [6]): 6.21 ± 2.63 × 10^−6 cm/s

Compound: O=c1ccc2cc3ccoc3cc2o1 [PSO, Psoralen]
- Papp at 120 min [1]: 20.5 ± 2.82 ×10⁻⁶ cm/s
- permeability rate decrease after adding HP-β-CD (rat jejunum [2]; EBGT markers): 4 fold
- permeability rate decrease after adding HP-β-CD (rat jejunum [2]; pure standards): 6 fold
- Papp at 120 min [3, 7]: 3.86 ± 1.81 ×10⁻⁶ cm/s
- Papp at 120 min [3, 8]: 17.6 ± 1.35 ×10⁻⁶ cm/s
- Papp at 120 min [3, 9]: 3.82 ± 0.62 ×10⁻⁶ cm/s
- Papp at 120 min [3, 10]: 21.4 ± 3.81 ×10⁻⁶ cm/s

Source: article PMC9322082, “Improvement in Solubility–Permeability Interplay of Psoralens from Brosimum gaudichaudii Plant Extract upon Complexation with Hydroxypropyl-β-cyclodextrin” (Molecules, 2022)
